Results reported in PMC5463454 (Cancer discovery, 2016).
Several values for one entry are separate records, joined by “and”; a condition that tells them apart may be missing. Equal entries are not always repeated.

What was measured:
clinical = assay type: in vivo; settings: for half-life / AUC(0-t) / Cmax / Tmax: human, plasma, oral
[1] = Phase I safety and tolerability
[2] = system: tumor cell line and patient-derived xenograft models; experiment: Xenograft tumor growth inhibition; assay type: in vivo, mice; settings: day 21, daily oral 100 mg/kg
[3] = 100 mg (n = 2), steady state, individual values
[4] = 100 mg, Day 15, 100 mg (n = 2), steady state, individual values
[5] = models with alterations in PTEN or PIK3CA, n = 21
[6] = models without alterations, n = 6

What does the source list for CC(C)NC[C@@H](C(=O)N1CCN(c2ncnc3c2[C@H](C)C[C@H]3O)CC1)c1ccc(Cl)cc1 [Ipatasertib]?
Accumulation ratio, AUC0–24,ss (day 15)/AUC0–24 (day 1) (clinical; 25 mg (n = 3), geometric mean (%CV)): 2.78 (15.7%); Accumulation ratio, AUC0–24,ss (day 15)/AUC0–24 (day 1) (clinical; 50 mg (n = 3), geometric mean (%CV)): 2.43 (32.1%); AUC0–24,ss, Day 15 (clinical; [3]): 568 ng·h/mL and 239 ng·h/mL; Cmax, Day 15 (clinical; [3]): 53.0 ng/mL; Accumulation ratio, AUC0–24,ss (day 15)/AUC0–24 (day 1) (clinical; 100 mg (n = 2), individual values): 2.57 and 0.927; clinical exposure relative to preclinical efficacy (clinical; 100 mg, most sensitive preclinical models): equivalent to TGI 60; Accumulation ratio, AUC0–24,ss (day 15)/AUC0–24 (day 1) (clinical; 200 mg (n = 3), geometric mean (%CV)): 2.44 (28.1%); Accumulation ratio, AUC0–24,ss (day 15)/AUC0–24 (day 1) (clinical; 400 mg (n = 3), geometric mean (%CV)): 1.95 (36.5%); t1/2, Day 1 (clinical; 600 mg (n = 7), single dose, geometric mean (range)): 45.8 (36.7–55.0) h; Accumulation ratio, AUC0–24,ss (day 15)/AUC0–24 (day 1) (clinical; 600 mg (n = 7), geometric mean (%CV)): 1.80 (73.6%); Accumulation ratio, AUC0–24,ss (day 15)/AUC0–24 (day 1) (clinical; 800 mg (n = 5), geometric mean (%CV)): 2.22 (20.0%); mean accumulation ratio (AUC0–24,ss/AUC0–24, day 1), range over doses (clinical; doses of 200 mg to 800 mg): 1.80 to 2.44; half-life (clinical): 1910 to 3180 min; half-life (clinical; 25 mg): 268 min; AUC(0-t) (clinical; 25 mg, AUC0–24, Day 1, 25 mg (n = 3), single dose, geometric mean (%CV)): 31.8 ng·h/mL; AUC(0-t) (clinical; 25 mg, AUC0–24,ss, Day 15, 25 mg (n = 3), steady state, geometric mean (%CV)): 88.3 ng·h/mL; Cmax (clinical; 25 mg, Day 1, 25 mg (n = 3), single dose, geometric mean (%CV)): 8.93 ng/mL; Cmax (clinical; 25 mg, Day 15, 25 mg (n = 3), steady state, geometric mean (%CV)): 8.92 ng/mL; Tmax (clinical; 25 mg, Day 1, 25 mg (n = 3), single dose, median (range)): 0.5 h; Tmax (clinical; 25 mg, Day 15, 25 mg (n = 3), steady state, median (range)): 0.5 h; half-life (clinical; 50 mg): 606 min; AUC(0-t) (clinical; 50 mg, AUC0–24, Day 1, 50 mg (n = 3), single dose, geometric mean (%CV)): 70.3 ng·h/mL; AUC(0-t) (clinical; 50 mg, AUC0–24,ss, Day 15, 50 mg (n = 3), steady state, geometric mean (%CV)): 171 ng·h/mL; Cmax (clinical; 50 mg, Day 1, 50 mg (n = 3), single dose, geometric mean (%CV)): 13.3 ng/mL; Cmax (clinical; 50 mg, Day 15, 50 mg (n = 3), steady state, geometric mean (%CV)): 33.9 ng/mL; Tmax (clinical; 50 mg, Day 1, 50 mg (n = 3), single dose, median (range)): 2.92 h; Tmax (clinical; 50 mg, Day 15, 50 mg (n = 3), steady state, median (range)): 1 h; half-life (clinical; 100 mg): 1910 min; AUC(0-t) (clinical; 100 mg, AUC0–24, Day 1, 100 mg (n = 3), single dose, geometric mean (%CV)): 260 ng·h/mL; Cmax (clinical; 100 mg, Day 1, 100 mg (n = 3), single dose, geometric mean (%CV)): 59.8 ng/mL; Cmax (clinical; [4]): 76.2 ng/mL; Tmax (clinical; 100 mg, Day 1, 100 mg (n = 3), single dose, median (range)): 2.97 h; Tmax (clinical; [4]): 0.5 to 0.67 h; half-life (clinical; 200 mg): 2350 min; AUC(0-t) (clinical; 200 mg, AUC0–24, Day 1, 200 mg (n = 3), single dose, geometric mean (%CV)): 726 ng·h/mL; AUC(0-t) (clinical; 200 mg, AUC0–24,ss, Day 15, 200 mg (n = 3), steady state, geometric mean (%CV)): 1770 ng·h/mL; Cmax (clinical; 200 mg, Day 1, 200 mg (n = 3), single dose, geometric mean (%CV)): 130 ng/mL; Cmax (clinical; 200 mg, Day 15, 200 mg (n = 3), steady state, geometric mean (%CV)): 183 ng/mL; Tmax (clinical; 200 mg, Day 1, 200 mg (n = 3), single dose, median (range)): 3 h; Tmax (clinical; 200 mg, Day 15, 200 mg (n = 3), steady state, median (range)): 1 h; half-life (clinical; 400 mg): 3180 min; AUC(0-t) (clinical; 400 mg, AUC0–24, Day 1, 400 mg (n = 3), single dose, geometric mean (%CV)): 1650 ng·h/mL; AUC(0-t) (clinical; 400 mg, AUC0–24,ss, Day 15, 400 mg (n = 3), steady state, geometric mean (%CV)): 3210 ng·h/mL; Cmax (clinical; 400 mg, Day 1, 400 mg (n = 3), single dose, geometric mean (%CV)): 506 ng/mL; Cmax (clinical; 400 mg, Day 15, 400 mg (n = 3), steady state, geometric mean (%CV)): 838 ng/mL; Tmax (clinical; 400 mg, Day 1, 400 mg (n = 3), single dose, median (range)): 1 h; Tmax (clinical; 400 mg, Day 15, 400 mg (n = 3), steady state, median (range)): 1 h; half-life (clinical; 600 mg): 2750 min; AUC(0-t) (clinical; 600 mg, AUC0–24, Day 1, 600 mg (n = 7), single dose, geometric mean (%CV)): 2670 ng·h/mL; AUC(0-t) (clinical; 600 mg, AUC0–24,ss, Day 15, 600 mg (n = 7), steady state, geometric mean (%CV)): 4450 ng·h/mL; Cmax (clinical; 600 mg, Day 1, 600 mg (n = 7), single dose, geometric mean (%CV)): 488 ng/mL; Cmax (clinical; 600 mg, Day 15, 600 mg (n = 7), steady state, geometric mean (%CV)): 748 ng/mL; Tmax (clinical; 600 mg, Day 1, 600 mg (n = 7), single dose, median (range)): 0.58 h; Tmax (clinical; 600 mg, Day 15, 600 mg (n = 7), steady state, median (range)): 0.83 h; half-life (clinical; 800 mg): 2630 min; AUC(0-t) (clinical; 800 mg, AUC0–24, Day 1, 800 mg (n = 7), single dose, geometric mean (%CV)): 3220 ng·h/mL; AUC(0-t) (clinical; 800 mg, AUC0–24,ss, Day 15, 800 mg (n = 5), steady state, geometric mean (%CV)): 6670 ng·h/mL; Cmax (clinical; 800 mg, Day 1, 800 mg (n = 7), single dose, geometric mean (%CV)): 479 ng/mL; Cmax (clinical; 800 mg, Day 15, 800 mg (n = 5), steady state, geometric mean (%CV)): 879 ng/mL; Tmax (clinical; 800 mg, Day 1, 800 mg (n = 7), single dose, median (range)): 2 h; Tmax (clinical; 800 mg, Day 15, 800 mg (n = 5), steady state, median (range)): 3 h; maximum tolerated dose (MTD) ([1]; PO QD, 21/7 dosing schedule): 600 mg; grade 4 AEs or deaths related to ipatasertib ([1]; all doses): no grade 4 AEs or deaths; mean %TGI (±SEM) [2, 5]: 95 ± 11%; median %TGI [2, 5]: 97%; mean %TGI (±SEM) [2, 6]: 38 ± 12%; median %TGI [2, 6]: 44%
